From US20190030139A1, “USP10 MODULATION OF AMPK AND MTOR” (MAYO FOUNDATION FOR MEDICAL EDUCATION AND RESEARCH, priority 2016, published 2019)
Blank lines part the entries; values can stand above or below the compound they belong to.

Assays:
cancer cells = assay: Survival of cancer cells with and without USP10 after treatment with everolimus; type: cell-based
Description: FIGS. 12A and 12B are pictures of immunoblots from co-immuno-precipitation assays showing that USP10 interacts with mTOR. […] FIG. 12D is a graph plotting survival of cancer cells with and without USP10, after treatment with the mTOR inhibitor, everolimus. […] FIG. 12E is a graph plotting survival of cancer cells with and without USP10 knockdown by shRNA, after treatment with everolimus.

AMPK [1] = assay: AMPK in vitro kinase assay (32P incorporation into peptides); type: biochemical
Method: AMPK in vitro kinase assay—Purified AMPK (Upstate Biotechnology) was incubated with various substrates (0.5 μg) in kinase reaction buffer (15 mM HEPES, pH 7.0, 1 mm dithiothreitol, 18.75 mM MgCl2, 1.25 mM EGTA, and 125 μM ATP and 12.5 μCi of radiolabeled ATP, with or without 150 μM AMP, at 30° C. for 30 minutes. The product was separated by SDS-PAGE and subjected to autoradiography. Phosphorylation was detected by incorporation of radiolabeled [γ-32P] ATP. To study the stoichiometry of phosphorylation of the USP10 S76 [TLPRTPSYSISST (SEQ ID NO:19), synthesized by Peptide 2.0] and SAMS (Abcam) peptides by AMPK, the peptides (20 μM) were individually incubated in 100 μl of reaction buffer at 30° C. Aliquots (10 μl) were removed at various times to measure ^32P incorporation.

ubiquitinated AMPKα = assay: In vitro deubiquitination of AMPKα; type: biochemical; conditions: bacterially-expressed USP10, ubiquitinated AMPKα substrate (FIGS. 3H and 4C)
Description: In vitro deubiquitination of AMPKα—To prepare ubiquitinated AMPKα as the substrate for the in vitro deubiquitination assay, HCT116 cells were transfected with both HA-Ub and FLAG-AMPKα. […] Following extensive washing with the FLAG-lysis buffer, proteins were eluted with FLAG-peptides (Sigma). The recombinant His-USP10 and USP10CA polypeptides were expressed in BL21 cells and purified with the His-tag purification column (Novagen). For the in vitro deubiquitination assay, ubiquitinated AMPK protein was incubated with recombinant USP10 in a deubiquitination buffer (50 mM Tris-HCl pH 8.0, 50 mM NaCl, 1 mM EDTA, 10 mM DTT, 5% glycerol) overnight at 16° C.

Ub-AMC = assay: In vitro deubiquitinase enzymatic assay with Ub-AMC; type: biochemical; conditions: purified USP10 incubated with or without active AMPK (FIG. 9A)
Method: In vitro deubiquitinase enzymatic assay—In vitro enzymatic assays using ubiquitin-7-amido-4-methylcoumarin (Ub-AMC; U-550; Boston Biochem) were performed in 50-100 μl reaction buffer (20 mM HEPES-KOH [pH 7.8], 20 mM NaCl, 0.1 mg/ml ovalbumin [A7641; Sigma], 0.5 mM EDTA, and 10 mM DTT) at 25° C. Fluorescence was monitored in an INFINITE® M1000 PRO Fluorometer (TECAN).

AMPK [2] = assay: Immunoblot of AMPK activation in HCT116 cells treated with Spautin-1; type: cell-based; conditions: indicated concentration of Spautin-1, immunoblot (FIG. 1I)
Method: FIG. 1A is a picture of an immunoblot showing the effect of USP10 knockdown on AMPK activation. HCT116 cells were infected with lentivirus encoding the indicated shRNAs. Cell lysates were immunoblotted as indicated. FIGS. 1B and 1C are a picture (FIG. 1B) and a graph (FIG. 1C) showing Oil-Red-O staining of HCT116 cells with or without shRNA knockdown of USP10. Control or USP10 knockdown HCT116 cells were incubated in medium supplemented with 200 μM sodium oleate overnight (20 hours) and fixed with formalin. The intracellular lipid droplet abundance was assessed by Oil-Red-O staining. The results represent the means (±SEM) of three independent experiments. **, p<0.01. FIG. 1D is a graph plotting lactate concentration in HCT116 cells. Lactate production was measured after incubation of control and USP10 knockdown HCT116 cells in medium for 48 hours. […] FIG. 1E is a graph plotting relative expression of aldoa, ldha, and pdkl mRNA in control or USP10 knockdown HCT116 cells, as determined by qPCR. Transcript levels were determined relative to actin mRNA levels, and normalized relative to control cells. […] The intracellular lipid droplet abundance was assessed by Oil-Red-O staining. […] The relative expression of aldoa, ldha, and pdkl mRNA in the indicated cells was determined by qPCR. Transcript levels were determined relative to actin mRNA levels, and normalized relative to control cells. […]

Compound: CO[C@H]1C[C@@H]2CC[C@@H](C)[C@@](O)(O2)C(=O)C(=O)N2CCCC[C@H]2C(=O)O[C@H]([C@H](C)C[C@@H]2CC[C@@H](OCCO)[C@H](OC)C2)CC(=O)[C@H](C)/C=C(\C)[C@@H](O)[C@@H](OC)C(=O)[C@H](C)C[C@H](C)/C=C/C=C/C=C/1C [everolimus]
survival of cancer cells (cancer cells; USP10 shRNA knockdown vs control shRNA (FIG. 12E)): greater effect on survival of USP10 knockdown cells than on cells treated with a control shRNA | survival of cancer cells (cancer cells; cells with vs without USP10 (FIG. 12D)): decreased in the absence of USP10

maximal stoichiometry of phosphorylation by AMPK (AMPK [1]; after 30 minutes of incubation, calculated from FIG. 8D data (FIG. 8E)): 0.46±0.04 mol/mol | initial rate of phosphorylation by AMPK (AMPK [1]; peptide 20 μM, 30° C., mean ±SEM of three experiments (FIG. 8D)): 155±36 pmol/min/reaction mix
Compound: USP10 peptide: synthesized USP10 S76 peptide TLPRTPSYSISST (SEQ ID NO:19) (listed as Homo sapiens)

Compound: WT USP10: recombinant wild type USP10 deubiquitinase (SEQ ID NO:2), bacterially expressed
deubiquitination of AMPKα in vitro (ubiquitinated AMPKα): removed ubiquitin chain from AMPKα

Compound: phosphorylated USP10: USP10 phosphorylated using active AMPK in vitro
deubiquitinase activity toward Ub-AMC (Ub-AMC): much higher activity toward Ub-AMC

Compound: S76A mutant: USP10 with S76 mutated to Ala
deubiquitinase activity toward Ub-AMC (Ub-AMC): remained low

Compound: Fc1ccc(CNc2ncnc3ccc(F)cc23)cc1 [Spautin-1]
AMPK activation (AMPK [2]): largely inhibited
